According to paper PMC7932537, “Quantitative profiling of protease specificity” (PLoS Computational Biology, 2021):

Key:
MMP-2 = assay: Substrate phage display with NGS: relative probability (RP) of P3-P1' tetramer clusters; type: biochemical, human; settings: for relative probability (RP) of matching tetramer: P3-P1' tetramer matching the MS detected MMP2 cleavage sequence, RP_above_4.5; for normalized RP - MMP2: normalized RP of matching tetramer; for corresponding MMP2 relative probability (RP): MMP9 tetramers from unique substrates, RP of same tetramer for MMP2
MMP-9 = assay: as above; type: biochemical, human; settings: for normalized RP - MMP9: normalized RP of matching tetramer; for MMP9 relative probability (RP): MMP9 tetramers from unique substrates, unrounded values
[1] = RP of matching tetramer, unique part of MMP2 selectome, RP above KL threshold
[2] = RP of matching tetramer, unique part of MMP2 selectome
[3] = RP of the P3-P1' tetramer, MMP2 substrate phage display/NGS, tetramers of physiologic MEROPS substrates common to MMP2 and MMP9
[4] = RP of the P3-P1' tetramer, MMP9 substrate phage display/NGS, tetramers of physiologic MEROPS substrates common to MMP2 and MMP9
[5] = RP of the P3-P1' tetramer cluster contained in the hexamer, 200 nM MMP-2, 2 h, 37°C, two rounds of selection
[6] = MMP9, RP of the P3-P1' tetramer contained in the hexamer substrate (substrate phage display, NGS)
[7] = RP of matching tetramer, common MMP2-9 selectome
[8] = MMP9, RP of the P3-P1' tetramer matching the MS detected cleavage, RP above 4.7, substrate phage display with NGS
[9] = RP of matching tetramer, common MMP2-9 selectome, RP above KL threshold
[10] = MMP2, RP of matching P3-P1' tetramer, common set of MMP2-9 selectome, RP above KL threshold
[11] = MMP9, RP of matching P3-P1' tetramer, common set of MMP2-9 selectome
[12] = RP according to MMP2, P3-P1' tetramer of unique physiologic MMP2 substrates from MEROPS

Question: How did the “relative probability (RP) of matching tetramer” value (MMP-2) turn out when NAQL was run?
Answer: The value was 9.69.

Question: What about the “relative probability (RP) (acc.to MMP2)” value (MMP-2; [1]) of the same substance?
Answer: Its value is 9.69.

Question: And the “normalized RP - MMP2” value (MMP-2; unique part of MMP2 selectome)?
Answer: Its value is 0.2653.

Question: And the “relative probability (RP) (acc.to MMP9)” value (MMP-9; [2])?
Answer: Its value is 0.

Question: And the “normalized RP - MMP9” value (MMP-9; unique part of MMP2 selectome)?
Answer: Its value is 0.

Question: What does the source list for NEGL?
Answer: relative probability (RP) (acc.to MMP2) (MMP-2; [3]): 0.16; relative probability (RP) (acc.to MMP9) (MMP-9; [4]): 0

Question: For NPMPIR, which “relative probability (RP)” value (MMP-2; [5]) is on record?
Answer: Its value is 26.0717.

Question: And the “relative probability (RP)” value (MMP-9; [6])?
Answer: Its value is 45.0822.

Question: NPQNIR was tested. Which “relative probability (RP)” value (MMP-2; [5]) did it give?
Answer: The value was 27.128.

Question: And the “relative probability (RP)” value (MMP-9; [6])?
Answer: Its value is 44.0295.

Question: What does the source list for NRGF?
Answer: relative probability (RP) of matching tetramer (MMP-2): 6.81; relative probability (RP) (acc.to MMP2) (MMP-2; [1]): 6.81; normalized RP - MMP2 (MMP-2; unique part of MMP2 selectome): 0.1865; relative probability (RP) (acc.to MMP9) (MMP-9; [2]): 0; normalized RP - MMP9 (MMP-9; unique part of MMP2 selectome): 0

Question: With NRPNNL as the substance, how does the “relative probability (RP)” value (MMP-2; [5]) read?
Answer: Its value is 27.0562.

Question: And the “relative probability (RP)” value (MMP-9; [6])?
Answer: The value was 38.7188.

Question: How did the “relative probability (RP)” value (MMP-2; [5]) turn out when NVARPM was run?
Answer: Its value is 21.8664.

Question: What about the “relative probability (RP)” value (MMP-9; [6]) of the same substance?
Answer: The value was 34.8794.

Question: Which results are given for PAAV?
Answer: relative probability (RP) (acc.to MMP2) (MMP-2; [7]): 30.72; relative probability (RP) (MMP-9; [8]): 36.05; relative probability (RP) (acc.to MMP9) (MMP-9; [9]): 36.05

Question: With PADF as the substance, how does the “relative probability (RP) (acc.to MMP2)” value (MMP-2; [10]) read?
Answer: The value was 20.44.

Question: What about the “relative probability (RP) of matching tetramer” value (MMP-2) of the same substance?
Answer: The value was 20.44.

Question: And the “relative probability (RP) (acc.to MMP9)” value (MMP-9; [11])?
Answer: Its value is 12.85.

Question: With PAGE as the substance, how does the “relative probability (RP) (acc.to MMP2)” value (MMP-2; [3]) read?
Answer: The value was 0.05.

Question: What about the “relative probability (RP) (acc.to MMP9)” value (MMP-9; [4]) of the same substance?
Answer: Its value is 0.06.

Question: How did the “relative probability (RP)” value (MMP-2; [5]) turn out when PAGVKA was run?
Answer: The value was 28.6381.

Question: And the “relative probability (RP)” value (MMP-9; [6])?
Answer: The value was 31.0803.

Question: Which results are given for PANA?
Answer: relative probability (RP) of matching tetramer (MMP-2): 17.73; relative probability (RP) (acc.to MMP2) (MMP-2; [1]): 17.73; normalized RP - MMP2 (MMP-2; unique part of MMP2 selectome): 0.4855; relative probability (RP) (acc.to MMP9) (MMP-9; [2]): 2.68; normalized RP - MMP9 (MMP-9; unique part of MMP2 selectome): 0.05116

Question: How did the “relative probability (RP)” value (MMP-2; [5]) turn out when PAPNSL was run?
Answer: The value was 24.6338.

Question: What about the “relative probability (RP)” value (MMP-9; [6]) of the same substance?
Answer: Its value is 34.9686.

Question: With PAQLHV as the substance, how does the “relative probability (RP)” value (MMP-2; [5]) read?
Answer: The value was 32.8467.

Question: What about the “relative probability (RP)” value (MMP-9; [6]) of the same substance?
Answer: Its value is 43.1805.

Question: PAVM was tested. Which “MMP2 relative probability (RP)” value (MMP-2; MMP2 tetramers from unique substrates, unrounded values) did it give?
Answer: The value was 17.6491.

Question: What about the “Relative probability (RP) rank” value (MMP-2; [12]) of the same substance?
Answer: Its value is 2339.

Question: What about the “relative probability (RP)” value (MMP-2; [12]) of the same substance?
Answer: The value was 17.65.

Question: What about the “corresponding MMP9 relative probability (RP)” value (MMP-9; MMP2 tetramers from unique substrates, RP of same tetramer for MMP9) of the same substance?
Answer: Its value is 4.1214.

Question: Which results are given for PDAL?
Answer: relative probability (RP) (acc.to MMP2) (MMP-2; [7]): 7.73; relative probability (RP) (MMP-9; [8]): 29.54; relative probability (RP) (acc.to MMP9) (MMP-9; [9]): 29.54

Question: PDGL was tested. Which “relative probability (RP) (acc.to MMP2)” value (MMP-2; [7]) did it give?
Answer: The value was 6.23.

Question: And the “relative probability (RP)” value (MMP-9; [8])?
Answer: The value was 23.13.

Question: And the “relative probability (RP) (acc.to MMP9)” value (MMP-9; [9])?
Answer: The value was 23.13.

Question: For PEAI, which “relative probability (RP) (acc.to MMP2)” value (MMP-2; [3]) is on record?
Answer: Its value is 22.52.

Question: What about the “relative probability (RP) (acc.to MMP9)” value (MMP-9; [4]) of the same substance?
Answer: Its value is 36.36.

Question: PEAQ was tested. Which “corresponding MMP2 relative probability (RP)” value (MMP-2) did it give?
Answer: Its value is 6.464.

Question: And the “MMP9 relative probability (RP)” value (MMP-9)?
Answer: The value was 2.403.

Question: PEGL was tested. Which “relative probability (RP) (acc.to MMP2)” value (MMP-2; [3]) did it give?
Answer: Its value is 29.5.

Question: What about the “relative probability (RP) (acc.to MMP9)” value (MMP-9; [4]) of the same substance?
Answer: Its value is 39.41.

Question: For PEGLQG, which “relative probability (RP)” value (MMP-2; [5]) is on record?
Answer: The value was 29.5031.

Question: And the “relative probability (RP)” value (MMP-9; [6])?
Answer: The value was 39.4116.

Question: How did the “relative probability (RP) (acc.to MMP2)” value (MMP-2; [3]) turn out when PENF was run?
Answer: The value was 16.

Question: What about the “relative probability (RP) (acc.to MMP9)” value (MMP-9; [4]) of the same substance?
Answer: The value was 20.05.

Question: And the “relative probability (RP)” value (MMP-9; tetramer annotation of MMP-9 cleavage sites in physiologic substrates from MEROPS)?
Answer: Its value is 20.05.

Question: Which results are given for PEPAAL?
Answer: relative probability (RP) (MMP-2; [5]): 35.8015; relative probability (RP) (MMP-9; [6]): 47.6262

Question: PEQL was tested. Which “relative probability (RP) (acc.to MMP2)” value (MMP-2; [10]) did it give?
Answer: The value was 12.46.

Question: What about the “relative probability (RP) of matching tetramer” value (MMP-2) of the same substance?
Answer: Its value is 12.46.

Question: And the “relative probability (RP) (acc.to MMP2)” value (MMP-2; [7])?
Answer: Its value is 12.46.

Question: What about the “relative probability (RP) (acc.to MMP9)” value (MMP-9; [11]) of the same substance?
Answer: Its value is 23.26.

Question: What about the “relative probability (RP)” value (MMP-9; [8]) of the same substance?
Answer: The value was 23.26.

Question: What about the “relative probability (RP) (acc.to MMP9)” value (MMP-9; [9]) of the same substance?
Answer: Its value is 23.26.

Question: What does the source list for PESW?
Answer: relative probability (RP) of matching tetramer (MMP-2): 4.73; relative probability (RP) (acc.to MMP2) (MMP-2; [1]): 4.73; normalized RP - MMP2 (MMP-2; unique part of MMP2 selectome): 0.1295; relative probability (RP) (acc.to MMP9) (MMP-9; [2]): 1.77; normalized RP - MMP9 (MMP-9; unique part of MMP2 selectome): 0.03379

Question: Which results are given for PFGV?
Answer: relative probability (RP) (acc.to MMP2) (MMP-2; [7]): 6.82; relative probability (RP) (MMP-9; [8]): 38.95; relative probability (RP) (acc.to MMP9) (MMP-9; [9]): 38.95

Question: For PFLI, which “corresponding MMP2 relative probability (RP)” value (MMP-2) is on record?
Answer: The value was 22.6532.

Question: What about the “MMP9 relative probability (RP)” value (MMP-9) of the same substance?
Answer: Its value is 0.05937.

Question: Which results are given for PGAY?
Answer: relative probability (RP) (acc.to MMP2) (MMP-2; [3]): 27.42; relative probability (RP) (acc.to MMP9) (MMP-9; [4]): 33.81

Question: PGEI was tested. Which “relative probability (RP) (acc.to MMP2)” value (MMP-2; [10]) did it give?
Answer: Its value is 14.72.

Question: What about the “relative probability (RP) of matching tetramer” value (MMP-2) of the same substance?
Answer: Its value is 14.72.

Question: What about the “relative probability (RP) (acc.to MMP2)” value (MMP-2; [7]) of the same substance?
Answer: The value was 14.72.

Question: What about the “relative probability (RP) (acc.to MMP9)” value (MMP-9; [11]) of the same substance?
Answer: Its value is 12.83.

Question: And the “relative probability (RP)” value (MMP-9; [8])?
Answer: The value was 12.83.

Question: And the “relative probability (RP) (acc.to MMP9)” value (MMP-9; [9])?
Answer: Its value is 12.83.

Question: Which “corresponding MMP2 relative probability (RP)” value (MMP-2) does the source give for PGGV here?
Answer: Its value is 10.6032.

Question: What about the “MMP9 relative probability (RP)” value (MMP-9) of the same substance?
Answer: The value was 2.434.

Question: With PGMI as the substance, how does the “relative probability (RP) (acc.to MMP2)” value (MMP-2; [10]) read?
Answer: Its value is 17.65.

Question: And the “relative probability (RP) of matching tetramer” value (MMP-2)?
Answer: The value was 17.65.

Question: And the “relative probability (RP) (acc.to MMP2)” value (MMP-2; [7])?
Answer: Its value is 17.65.

Question: What about the “relative probability (RP) (acc.to MMP9)” value (MMP-9; [11]) of the same substance?
Answer: The value was 13.36.

Question: What about the “relative probability (RP)” value (MMP-9; [8]) of the same substance?
Answer: Its value is 13.36.

Question: What about the “relative probability (RP) (acc.to MMP9)” value (MMP-9; [9]) of the same substance?
Answer: The value was 13.36.

Question: For PGNR, which “relative probability (RP) (acc.to MMP2)” value (MMP-2; [3]) is on record?
Answer: The value was 0.12.

Question: What about the “relative probability (RP) (acc.to MMP9)” value (MMP-9; [4]) of the same substance?
Answer: Its value is 0.05.

Question: How did the “relative probability (RP)” value (MMP-2; [5]) turn out when PGPAGQ was run?
Answer: Its value is 28.0249.

Question: What about the “relative probability (RP)” value (MMP-9; [6]) of the same substance?
Answer: The value was 28.6679.
